Measured values from patent EP1306084A1, “Compositions for the control of parasitic infestations in fish” (Alpharma AS, priority 1998, dated 1999).
Read-outs that look alike come from different tables or passages of the source.

How the values were obtained:
Type in all cases: in vivo, salmon (Salmo salar)
[1] = system: sea lice; assay: Injection of hexaflumuron in furunculosis vaccine formulations, sea lice counts after sea water transfer (Example 7); settings: for average number of lice: control group 19.2
Experimental: The treatment dosage was 9 mg hexaflumuron per kg fish per day for 10 days. This is indicated by "Groups/Timepoints" in the figure; • Figure 2 relates to the trial in Example 2 that was carried out on Atlantic salmon (Salmo salar). […] The treatment dosage varied between 3 - 9 mg hexaflumuron and 9- 12 mg fluazuron per kg fish per day for 7 days. This is indicated by "Groups/Timepoints" in the diagram. […] The treated groups are compared to an untreated control group. The treatment dosage was 4 mg hexaflumuron per kg fish per day for 5 days. This is indicated by "Groups/Timepoints" in the figure. Cage 2 = controls, Cage 4-6 = treated groups, 16.6.97 = time point for sea transfer and 5.8.97= controls treated by bathing with deltamethrin; • Figure 4 relates to the trial described in Example 5, which was carried out on sea trout (Salmo trutta). […] The treated groups are compared with an untreated control group. The dosage for oral treatment was 4 mg hexaflumuron per kilo fish per day for 5 days, and 5 ppm hexaflumuron as a 30 minute bath treatment. This is indicated by "Groups/Timepoints" in the figure. Cage 1.4 = Controls, cage 1.3 = Oral treatment, cage 1.2 = Bath treatment. […] The treated groups are compared with an untreated control group, and one group that has been treated orally with teflubenzuron (10 mg/kg of teflubenzuron per kg fish per day for 7 days). The dosage for oral treatment was 5.6 mg hexaflumuron per kg fish per day for 7 days, and 5 ppm hexaflumuron as a 30 minute bath treatment. […] End of treatment: 22.10.97, Sea transfer: 23.10.97. T1 = 3 weeks post end of treatment, T2 = 5 weeks post end of treatment, T3 = 9 weeks post end of treatment, T4 = 12 weeks post end of treatment; • Figure 6 relates to the trial in Example 6 at time points 4-6, with the same trial parameters as for Figure 5. T5 = 15 weeks post end of treatment, T6 = 17 weeks post end of treatment. Cage 3 and 4 were treated by bath with deltamethrin after sea lice counting at T4 (12.01.98); • Figure 7 relates to the trial described in Example 7 where salmon were injected on 17.12.97 with two formulations (groups L and R, respectively) of hexaflumuron and a vaccine formulation without hexaflumuron (control). […] The vaccinated fish was transferred to sea water on 09.01.98; • Figure 8 summarises the trial of Example 8 where salmon smolts were injected with 9 different active substances on 08.07.98. Only results for Moxidectin (Mox.), Lufenuron (Luf.) and hexaflumuron in Apoject 1-Fural (Hex.Apo) and in animal oil (Hex.oil) are shown, and • Figure 9 summarises the trial described in Example 10 where salmon were injected on 03.12.97 with 3 different formulations of hexaflumuron (Hexa 1, Hexa 2 and Hexa 3). The fish were transferred to sea water at T0.
About 80 salmon (Salmo salar) at an average weight of about 80 grams were divided into two groups and injected with two different formulations of hexaflumuron at a dosage of about 50 mg/kg. Both formulations were prepared based upon a vaccine against furunculosis containing inactivated cells of Aeromonas salmonicida subsp. salmonicida. Hexaflumuron was mixed/formulated into the vaccine in two different manners to study the effect of the formulation on the depot effect in the fish and on the stability characteristics of the vaccine emulsions.
The fish were dosed (injected) while they were in freshwater and 23 days after the administration they were transferred to sea water (mini-cages). In parallel with the two groups, a third group comprising 40 fish of the same origin and size was vaccinated with a conventional vaccine without hexaflumuron. This group was kept in the same tank (freshwater) and cage (sea water) as the "hexaflumuron injected" groups and served as negative control/reference group in respect of sea lice infestations. Prior to the start of the trial, the groups were marked by fin cutting. The water temperature varied between 3.8 and 16.0°C throughout the trial. […]

[2] = Chemical analysis of muscle with skin after injection (Example 7); settings: fish, 50 mg/kg; for concentration at 8280 h: T11, 345 days after injection, read-out: muscle/skin concentration of hexaflumuron
Experimental: Tissue samples (muscle with skin) for chemical analysis were collected from three fish at each sample point in time throughout the entire trial period in order to monitor the concentrations of hexaflumuron. At sea water transfer, the muscle/skin concentrations were between 2 and 3 µg hexaflumuron per g of tissue. […] At T8, i.e. 238 days after vaccination, the concentration of hexaflumuron varied between 0.49 and 0.53 µg per g of tissue. At T11, i.e. 345 days after injection (322 days after sea water transfer) the muscle/skin concentration of hexaflumuron in the two groups was 0.13 and 0.11 µg/g tissue, respectively. At the same point in time, different stages of sea lice had become established on these fish.

[3] = system: sea lice; assay: Injection of hexaflumuron in multivalent vaccine formulations, sea lice counts after sea water transfer (Example 10)
Experimental: The treatment dosage was 9 mg hexaflumuron per kg fish per day for 10 days. This is indicated by "Groups/Timepoints" in the figure; • Figure 2 relates to the trial in Example 2 that was carried out on Atlantic salmon (Salmo salar). […] The treatment dosage varied between 3 - 9 mg hexaflumuron and 9- 12 mg fluazuron per kg fish per day for 7 days. This is indicated by "Groups/Timepoints" in the diagram. […] The treated groups are compared to an untreated control group. The treatment dosage was 4 mg hexaflumuron per kg fish per day for 5 days. This is indicated by "Groups/Timepoints" in the figure. Cage 2 = controls, Cage 4-6 = treated groups, 16.6.97 = time point for sea transfer and 5.8.97= controls treated by bathing with deltamethrin; • Figure 4 relates to the trial described in Example 5, which was carried out on sea trout (Salmo trutta). […] The treated groups are compared with an untreated control group. The dosage for oral treatment was 4 mg hexaflumuron per kilo fish per day for 5 days, and 5 ppm hexaflumuron as a 30 minute bath treatment. This is indicated by "Groups/Timepoints" in the figure. Cage 1.4 = Controls, cage 1.3 = Oral treatment, cage 1.2 = Bath treatment. […] The treated groups are compared with an untreated control group, and one group that has been treated orally with teflubenzuron (10 mg/kg of teflubenzuron per kg fish per day for 7 days). The dosage for oral treatment was 5.6 mg hexaflumuron per kg fish per day for 7 days, and 5 ppm hexaflumuron as a 30 minute bath treatment. […] End of treatment: 22.10.97, Sea transfer: 23.10.97. T1 = 3 weeks post end of treatment, T2 = 5 weeks post end of treatment, T3 = 9 weeks post end of treatment, T4 = 12 weeks post end of treatment; • Figure 6 relates to the trial in Example 6 at time points 4-6, with the same trial parameters as for Figure 5. […]
Following transfer to sea water, the fish were exposed to natural sea lice infestation. Every three weeks lice were counted on 10 fish of each group to assess if the number of lice between the various groups differed. […]

[4] = injected in vaccine formulations

With O=C(NC(=O)c1c(F)cccc1F)Nc1cc(Cl)c(OC(F)(F)C(F)F)c(Cl)c1 [hexaflumuron] the “average number of lice” value ([1]; T8, first-named treated group (formulation)) was 4.8, the “average number of lice” value ([1]; T8, second-named treated group (formulation)) was 1.8 and the “number of sea lice versus control group” value ([1]; T9 and T10, treated groups) was “significant differences”. For the same compound, the “number of lice versus control group” value ([1]; T11, after ALPHA MAX bath of all groups) was “significantly less lice”, the “excellent protection against sea lice infestation after sea water transfer” value ([1]; injection about 50 mg/kg) was 7 months and the “partially protective effect after sea water transfer” value ([1]; injection about 50 mg/kg) was at most 10.5 months. For the same compound, the “time after sea water transfer until sea lice were first recorded (T8)” value ([1]; injection about 50 mg/kg, two treated groups, control had lice from T5 (126 days)) was 215 days, the concentration at 5712 h ([2]; T8, 238 days after vaccination, read-out: concentration of hexaflumuron in muscle/skin) was 490 to 530 ng/g and the concentration at 8280 h ([2]; first-named group) was 130 ng/g. The concentration at 8280 h ([2]; second-named group) was 110 ng/g, the concentration at 552 h ([2]; at sea water transfer (23 days after injection of about 50 mg/kg), read-out: muscle/skin concentrations) was 2000 to 3000 ng/g and the “number of sea lice versus control” value ([3]; 9 and 12 weeks after sea water transfer (T3 and T4), 3 formulations, 25 mg per ml vaccine) was “significantly lower”. For the same compound, the “protection against recurrent infestation after injection” value [3, 4] was at least 18 weeks and the “protection against recurrent infestation after sea water transfer” value [3, 4] was “at least 12 weeks”.
